We go through 13 compounds from patent US11999727B2 (Tango Therapeutics, Inc., priority 2020, dated 2024).

Like-named read-outs stand apart in the source and are kept apart here. Where only a bound is given, the exact number is not on record here.

For assay [1], the system named is HAP1 MTAP-deleted cell line. The assay can be described thus: Viability assay, MTAP-deleted cell line. It is filed as cell-based. To be noted: Homo sapiens, read-out: HAP1 MTAP deleted viability. An excerpt:
Table 1 additionally indicates IC50 values in a viability assay for the MTAP-deleted cell line (column 10), indicating the effect of treatment with compound on cell survival.

Assay [2] has as its target T1, PRMT5 (Homo sapiens, UniProt O14744).
T1 construct: purchased Viva (custom protein)
The assay can be described thus: PRMT5 biochemical IC50 assay with MTA as cofactor. The conditions noted are these: PRMT5, MTA as cofactor; read-out: MTA IC50.

The target in assay [3] is T1, PRMT5. The assay can be described thus: PRMT5 biochemical IC50 assay with no cofactor. The conditions noted are these: PRMT5, no cofactor. The source says: Table 1 indicates IC50 values (μM) against PRMT5 for exemplary compounds in the presence of SAM as cofactor, with no cofactor, and with MTA as cofactor, respectively (columns 4-6). […] Ki values can be calculated from the IC50 values as described in the Examples section. As detailed in the Examples section, for the assay performed in the presence of SAM, IC50=Ki×1.5 (Ki=IC50/1.5).

Assay [4] deals with HAP1 MTAP-intact cell line. The assay can be described thus: SDMA in-cell western assay, HAP1 MTAP-intact. The conditions noted are these: HAP1 MTAP-intact; for IC50: read-out: MTAP HAP1 intact IC50. Also on record: MTAP HAP1 intact IC50: scale not given here. Type of assay: cell-based. In outline:
(§1)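 Compounds were tested in HAP1 cells differing only in MTAP status (endogenous expression versus null). Cellular SDMA levels were then measured by in-cell western, giving an IC50 in each background.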

Assay [5] deals with T1, PRMT5. The assay can be described thus: PRMT5 biochemical IC50 assay with SAM as cofactor. To be noted: PRMT5, SAM as cofactor; read-out: SAM IC50.
Assay [6] deals with HAP1 MTAP-deleted cell line. The assay can be described thus: SDMA in-cell western assay, HAP1 MTAP-deleted. It is filed as cell-based. The conditions noted are these: for IC50: Homo sapiens, HAP1, SDMA in-cell western, HAP1 MTAP-deleted; for MTAP intact/deleted ratio: SDMA in-cell western. In outline: as §1
The mark [7] stands for this setting: HAP1, viability assay, MTAP-deleted cell line.
Setting [8] is: Homo sapiens, HAP1, SDMA in-cell western.
The mark [9] stands for this setting: read-out: HAP1 MTAP deleted IC50.
The mark [10] stands for this setting: IC50 ratio HAP1 MTAP-intact / HAP1 MTAP-deleted.
Where [11] appears, read: IC50 ratio HAP1 MTAP-intact vs HAP1 MTAP-deleted.
[12] abbreviates: HAP1, viability assay, HAP1 MTAP-deleted.
Where [13] appears, read: HAP1, viability, HAP1 MTAP-deleted cell line.
Where [14] appears, read: read-out: No Cofactor/ rel IC50.
Setting [15] is: read-out: HAP 1 MTAP deleted IC50.

T1 sequence (O14744 whole entry): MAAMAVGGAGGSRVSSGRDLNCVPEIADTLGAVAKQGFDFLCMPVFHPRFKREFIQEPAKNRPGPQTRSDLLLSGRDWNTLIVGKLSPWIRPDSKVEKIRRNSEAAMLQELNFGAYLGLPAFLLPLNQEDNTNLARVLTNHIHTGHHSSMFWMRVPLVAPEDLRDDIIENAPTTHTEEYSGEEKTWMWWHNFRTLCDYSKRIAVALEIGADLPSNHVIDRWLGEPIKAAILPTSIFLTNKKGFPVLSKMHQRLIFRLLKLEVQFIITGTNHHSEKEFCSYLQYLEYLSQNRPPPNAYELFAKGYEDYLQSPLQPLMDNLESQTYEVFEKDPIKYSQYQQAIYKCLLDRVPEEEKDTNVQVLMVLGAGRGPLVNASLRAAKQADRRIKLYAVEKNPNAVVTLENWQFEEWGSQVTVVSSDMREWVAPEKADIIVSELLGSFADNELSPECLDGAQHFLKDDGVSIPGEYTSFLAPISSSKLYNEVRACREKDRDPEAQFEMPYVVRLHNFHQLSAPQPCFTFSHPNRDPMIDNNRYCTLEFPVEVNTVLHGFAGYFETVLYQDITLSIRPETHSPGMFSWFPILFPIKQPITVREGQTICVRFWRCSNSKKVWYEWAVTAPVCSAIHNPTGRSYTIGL
T1 sequence (Q9BQA1 whole entry partner): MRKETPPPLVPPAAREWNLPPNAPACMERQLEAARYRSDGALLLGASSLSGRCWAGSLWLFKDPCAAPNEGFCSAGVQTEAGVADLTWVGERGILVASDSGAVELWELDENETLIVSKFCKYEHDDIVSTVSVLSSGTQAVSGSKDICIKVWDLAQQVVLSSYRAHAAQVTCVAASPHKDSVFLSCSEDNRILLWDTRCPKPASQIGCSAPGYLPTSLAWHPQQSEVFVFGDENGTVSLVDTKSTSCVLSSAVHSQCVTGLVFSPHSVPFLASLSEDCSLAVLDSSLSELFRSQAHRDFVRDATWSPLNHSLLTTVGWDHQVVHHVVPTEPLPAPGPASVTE

`CNc1ccc([C@@H]2CC[C@@H](C)CN2C(=O)C(=O)Nc2cncc(C(N)=O)c2)cn1` (racemic) [Compound 209, rac-5-{2-[(2R,5S)-5-Methyl-2-[6-(methylamino)pyridin-3-yl]piperidin-1-yl]-2-oxoacetamido}pyridine-3-carboxamide]: the IC50 in assay [1] (setting [7]) was 1000 to 10000 nM; in assay [2] it was under 50 nM; in assay [3] (read-out: No Cofactor/rel IC50) it was 50 to 500 nM; in assay [4] (setting [8]), over 1000 nM; in assay [5], 50 to 500 nM; in assay [6] (setting [9]), under 100 nM. The MTAP intact/deleted ratio entry in assay [6] (setting [10]) is given as “A (an IC50 ratio greater than or equal to 10 fold)”.
Consider `CCc1cc(NC(=O)C(=O)N2C[C@@H](C)[C@H](OC)C[C@@H]2c2cccc(OCCN(C)C)c2)cnc1N` (racemic) [Compound 1172, N-(6-amino-5-ethyl-3-pyridyl)-2-oxo-2-[rac-(2R,4R,5R)-2-[3-[2-(dimethylamino)ethoxy]phenyl]-4-methoxy-5-methyl-1-piperidyl]acetamide], for which the IC50 is under 1000 nM in assay [1] (setting [7]); under 50 nM in assay [2]; 50 to 500 nM in assay [3] (read-out: No Cofactor/rel IC50); 100 to 1000 nM in assay [4] (setting [8]); 50 to 500 nM in assay [5]; under 100 nM in assay [6] (setting [9]). For the same compound, in assay [6] (setting [11]), the MTAP intact/deleted ratio entry is reported as “A (an IC50 ratio greater than or equal to 10 fold)”.
Turning to `C[C@H]1CC[C@H](c2ccc(S(N)(=O)=O)cc2)N(C(=O)C(=O)Nc2cncc(C(N)=O)c2)C1` (single isomer, unassigned) [Compound 724], the IC50 was over 10000 nM in assay [1] (setting [12]); over 500 nM in assay [2]; over 500 nM in assay [3] (read-out: No Cofactor/rel IC50); over 1000 nM in assay [4] (setting [8]); over 500 nM in assay [5]; over 1000 nM in assay [6] (setting [9]). The MTAP intact/deleted ratio result in assay [6] (setting [10]) is recorded as “C (an IC50 ratio of less than 3 fold)”.
For the compound `C[C@H]1CC[C@H](c2ccc3sc(C4CCN(C)CC4)nc3c2)N(C(=O)C(=O)Nc2cnc(N)c([C@H]3CCOC3)c2)C1` (single isomer, unassigned) [Compound 1312], the IC50 in assay [1] (setting [13]) was under 1000 nM; in assay [2] it was under 50 nM; in assay [3] (setting [14]), under 50 nM; in assay [4] (setting [8]), over 1000 nM; in assay [5], under 50 nM; in assay [6] (setting [15]), under 100 nM.
In the case of `CCc1cc(NC(=O)C(=O)N2C[C@@H](C)CC[C@@H]2c2ccc3sc([C@H]4CCN(C)C(C)(C)C4)nc3c2)cnc1N` (single isomer, unassigned) [Compound 1397], the IC50 in assay [1] (setting [13]) was under 1000 nM; in assay [2], under 50 nM; in assay [3] (setting [14]) it was under 50 nM; in assay [4] (SDMA in-cell western) it was under 100 nM; in assay [5], 50 to 500 nM; in assay [6] (setting [15]), under 100 nM. Moreover, the “MTAP intact/deleted ratio” value in assay [6] (setting [10]) is given as “A (an IC50 ratio greater than or equal to 10 fold)”.
As to `NC(=O)c1cncc(NC(=O)C(=O)N2CCCCC2C2CCC(F)(F)CC2)c1` (stereo not drawn) [Compound 170, 5-[[2-[2-(4,4-difluorocyclohexyl)-1-piperidyl]-2-oxo-acetyl]amino]pyridine-3-carboxamide], the IC50 in assay [1] (setting [7]) is over 10000 nM; in assay [2], 50 to 500 nM; in assay [3] (setting [14]), over 500 nM; in assay [4] (setting [8]) it was over 1000 nM; in assay [5], 50 to 500 nM; in assay [6] (setting [15]), 100 to 1000 nM. Besides, the “MTAP intact/deleted ratio” value in assay [6] (setting [10]) was “A (an IC50 ratio greater than or equal to 10 fold)”.
For the compound `C[C@@H]1CC[C@@H](c2ccc3c(c2)CCCN3)N(C(=O)C(=O)Nc2cncc(C(N)=O)c2)C1` (single isomer, unassigned) [Compound 432], the IC50 was 1000 to 10000 nM in assay [1] (setting [7]); under 50 nM in assay [2]; 50 to 500 nM in assay [3] (read-out: No Cofactor/rel IC50); over 1000 nM in assay [4] (setting [8]); 50 to 500 nM in assay [5]; under 100 nM in assay [6] (setting [9]). Moreover, in assay [6] (setting [10]), the MTAP intact/deleted ratio entry is recorded as “A (an IC50 ratio greater than or equal to 10 fold)”.
For the compound `CCc1cc(NC(=O)C(=O)N2C[C@@H](C)CC[C@@H]2c2ccc3sc([C@@H]4CN(C)CCO4)nc3c2)cnc1N` [Compound 1134, N-(6-amino-5-ethyl-3-pyridyl)-2-oxo-2-[(2R,5S)-5-methyl-2-[2-[(2S)-4-methylmorpholin-2-yl]-1,3-benzothiazol-5-yl]-1-piperidyl]acetamide], the IC50 was under 1000 nM in assay [1] (setting [7]); under 50 nM in assay [2]; under 50 nM in assay [3] (read-out: No Cofactor/rel IC50); under 100 nM in assay [4] (setting [8]); 50 to 500 nM in assay [5]; under 100 nM in assay [6] (setting [9]). Further, the MTAP intact/deleted ratio result in assay [6] (setting [11]) is listed as “A (an IC50 ratio greater than or equal to 10 fold)”.
Take `CC(=O)Nc1ccc([C@@H]2CC[C@@H](C)CN2C(=O)C(=O)Nc2cncc(C(N)=O)c2)s1` (single isomer, unassigned) [Compound 704]: the IC50 in assay [1] (HAP1, viability IC50, MTAP-deleted cell line) is over 10000 nM; in assay [2], under 50 nM; in assay [3] (read-out: No Cofactor/rel IC50), 50 to 500 nM; in assay [4] (setting [8]) it was over 1000 nM; in assay [5] it was over 500 nM; in assay [6] (setting [15]), over 1000 nM. Besides, the MTAP intact/deleted ratio entry in assay [6] (setting [10]) is listed as “C (an IC50 ratio of less than 3 fold)”.
With `CC(=O)N1CCC(c2cccc([C@@H]3CC[C@@H](C)CN3C(=O)C(=O)Nc3cncc(C(N)=O)c3)c2)CC1` (single isomer, unassigned) [Compound 346], the IC50 is 1000 to 10000 nM in assay [1] (setting [7]); under 50 nM in assay [2]; 50 to 500 nM in assay [3] (read-out: No Cofactor/rel IC50); over 1000 nM in assay [4] (setting [8]); 50 to 500 nM in assay [5]; 100 to 1000 nM in assay [6] (setting [9]). Besides, the MTAP intact/deleted ratio entry in assay [6] (setting [10]) is “A (an IC50 ratio greater than or equal to 10 fold)”.
As for `C[C@@H]1CN(C(=O)C(=O)Nc2cncc(C(N)=O)c2)[C@@H](c2ccc(F)cc2)C(F)(F)C1` (racemic) [Compound 836, 5-[[2-[(2S,5S)-3,3-difluoro-2-(4-fluorophenyl)-5-methyl-1-piperidyl]-2-oxo-acetyl]amino]pyridine-3-carboxamide], the IC50 in assay [1] (setting [12]) is 1000 to 10000 nM; in assay [2] it was under 50 nM; in assay [3] (read-out: No Cofactor/rel IC50), 50 to 500 nM; in assay [5], 50 to 500 nM; in assay [6] (setting [9]), 100 to 1000 nM. In assay [4] (SDMA in-cell western), the “MTAP HAP1 intact IC50” value is given as “C*”. Further, the MTAP intact/deleted ratio result in assay [6] (setting [10]) is “A (an IC50 ratio greater than or equal to 10 fold)”.
Turning to `Cc1cc(NC(=O)C(=O)N2C[C@@H](C)CC[C@@H]2c2cccc3[nH]cnc23)cnc1N` (single isomer, unassigned) [Compound 964], the IC50 is over 10000 nM in assay [1] (setting [7]); over 500 nM in assay [2]; over 500 nM in assay [3] (read-out: No Cofactor/rel IC50); over 1000 nM in assay [4] (setting [8]); over 500 nM in assay [5]; over 1000 nM in assay [6] (setting [15]). The MTAP intact/deleted ratio entry in assay [6] (setting [10]) was “C (an IC50 ratio of less than 3 fold)”.
On to `Cc1cc(NC(=O)C(=O)N2C[C@H](C)CC[C@H]2c2ccn(-c3ccn[nH]3)n2)cnc1N` (racemic) [Compound 715, 2-(2-(1′H-[1,3′-bipyrazol]-3-yl)-5-methylpiperidin-1-yl)-N-(6-amino-5-methylpyridin-3-yl)-2-oxoacetamide], for which the IC50 in assay [1] (setting [12]) is 1000 to 10000 nM; in assay [2], 50 to 500 nM; in assay [3] (read-out: No Cofactor/rel IC50) it was 50 to 500 nM; in assay [4] (setting [8]), over 1000 nM; in assay [5], over 500 nM; in assay [6] (setting [9]) it was under 100 nM. The MTAP intact/deleted ratio entry in assay [6] (setting [10]) is on record as “A (an IC50 ratio greater than or equal to 10 fold)”.
